Laboratory results: US10697020B2, “MicroRNA-129 as a biomarker for colorectal cancer” (THE RESEARCH FOUNDATION FOR THE STATE UNIVERSITY OF NEW YORK, priority 2013, dated 2020)

Tests used:
RKO cells [1] = assay: Cell cycle analysis (flow cytometry), RKO; format: cell-based, human; conditions: 36 h after transfection
Experimental: (§1) HCT116, RKO and SW480 cells were plated in 6-well plates at 2×10^5, 1×10^5 and 1×10^5 per well, respectively. Twenty-four hours after plating, 100 nM of miR-129 precursor (Ambion, Carlsbad, Calif., USA) or siRNA against BCL2 (Dharmacon, Lafayette, Colo., USA) were transfected to the cells with oligofectamine (Invitrogen, Carlsbad, Calif., USA) in accordance with the manufacturer's protocol. Negative miRNA (Ambion) was also transfected as a negative control.
Thirty-six hours after transfection, cells were harvested and resuspended at 0.5 to 1×10^6 cells/m in modified Krishan buffer supplemented with 0.02 mg/ml RNase H (Invitrogen) and 0.05 mg/ml propidium iodide (Sigma-Aldrich, St. Louis, Mo., USA) (See, Krishan A. The Journal of Cell Biology. 1975; 66(1):188-93). Stained cells were detected by flow cytometry and results were analyzed with Modfit LT™ software. The experiments for cell cycle analysis were performed at least three times.

3′-UTR of BCL2 mRNA = assay: Luciferase assay, pMIR-REPORT-3′-UTR-BCL2 in HCT116 cells; format: cell-based, human; conditions: 10 nM, 24 h, normalized to negative miRNA
Experimental: The predicted miR-129 binding sequence (wild-type, underlined) or a mismatch sequence (mutant, italic underlined) in the 3′UTR of Bcl2 mRNA were synthesized with SpeI and PmeI restriction site overhangs (Invitrogen). After annealing, double strand oligonucleotides were inserted into the pMIR-REPORT plasmid (Invitrogen), downstream of the firefly luciferase reporter. The sequences of these synthesized oligonucleotides are:
Twenty-four hours before transfection, 1.5×10^4 cells were plated in 96-well plate. 10 nM of miR-129 or negative miRNA was transfected into cells together with 100 ng of pMIR-REPORT-3′-UTR-BCL2 (wild-type or mutant) and 1 ng of Renilla luciferase plasmid pRL-SV40 (Promega, Madison, Wis., USA) by DharmaFect Duo (Dharmacon, Lafayette, Colo., USA) following the manufacturer's protocol. Luciferase assay was performed 24 hour after transfection by dual-luciferase reporter assay system (Promega). For each sample, firefly luciferase activity was normalized to Renilla luciferase activity and the inhibition by miR-129 was normalized to the control miRNA.

RKO cells [2] = assay: Cell proliferation assay (WST-1), RKO; format: cell-based, human; conditions: day 5
Experimental: as §1
Twenty-four hours after transfection, cells were seeded in 96-well plates at a density of 2000 cells per well. The cell proliferation assay was performed on days 1, 3 and 5 by incubating 10 μl WST-1 (Roche Applied Science, Mannheim, Germany) in the culture medium for 1 h and reading the absorbance at 450 and 630 nm. The cell proliferation rate was calculated by […]. Experiments for the cell proliferation assay were performed at least three times.

[3] = system: 84 genes involved in cell death pathways; assay: Cell Death PathwayFinder PCR Array (real time qRT-PCR); format: cell-based, human; conditions: miR-129 transfected vs negative miRNA transfected cells
Excerpt: RNAs were extracted from cells transfected with either precursor miR-129 or negative miRNA using TRIzol reagent (Invitrogen) in accordance with the manufacturer's protocol. RNAs were transcribed to first-strand cDNA using the RT^2 First Strand Kit (SABiosciences, Qiagen, Venlo, Netherlands). Next, the cDNA is mixed with RT^2 SYBR Green Mastermix (SABiosciences), and this mixture is aliquoted into the wells of the Cell Death PathwayFinder PCR Array (PAHS-212Z). Applied Biosytems 7500 Real-Time PCR machine was used for qRT-PCR, and relative expression values were determined using the ΔΔCT method.

[4] = parameters: species or system NOD/SCID mice; conditions: mouse, in vivo
Experimental: When solid and palpable tumors with an average volume of 100-150 mm^3 were formed (at day 14), mice were randomly separated into four groups such that each group was treated either with negative control miRNA, miR-129 alone, 5-FU alone or miR-129 and 5-FU together. The miRNAs were complexed with siPORTamine and injected intratumorally while 5-FU (50 μg g^−1) was injected systemically via the tail vein. All injections were provided in 3-day intervals for a total of three times before the tumors were collected at day 24. […] Importantly, despite the overexpression, the expression levels of miR-129 copy number remained within the physiological range (less than 20 copies/cell based on cycle threshold value at 30, which is equal to the expression of miR-129 in normal colon mucosa). Moreover, the control tumor xenografts had no miR-129 expression (cycle threshold value at 35). […]
The miR-129 specific primer and the internal control RNU44 gene were purchased from Ambion. cDNA synthesis was performed by the High Capacity cDNA Synthesis Kit (Applied Biosystems, CA, USA) with miRNA specific primers. […] Expression level of miR-129 was calculated by the ΔΔCT method based on the internal control RNU44, normalized to the control group and plotted as relative quantification (RQ).

**Q.** Which “cell cycle arrest (G1/S and G2/S ratios)” value (RKO cells [1]) does the source give for “miR-129: nucleic acid having a sequence of CUUUUUGCGGUCUGGGCUUGC (SEQ ID NO. 1); miR-129 precursor from Ambion used (chemistry not given here; listed as Homo sapiens)” here?
**A.** at G1 checkpoint

**Q.** And the “firefly luciferase activity of pMIR-REPORT-3′-UTR-BCL2 (wild-type)” value (3′-UTR of BCL2 mRNA)?
**A.** significantly inhibited the luciferase activity

**Q.** And the “luciferase activity of reporter with 3′-UTR of BCL2 with three point mutations in the miR-129 binding site (mutant)” value (3′-UTR of BCL2 mRNA)?
**A.** did not inhibit the luciferase activity

**Q.** And the “cell proliferation reduced compared to negative controls” value (RKO cells [2])?
**A.** 43.9%

**Q.** What about the “Fold change (miR-129/neg)” value ([3]; gene APAF1) of the same substance?
**A.** 2.44

**Q.** And the “Fold change (miR-129/neg)” value ([3]; gene BAX)?
**A.** 27.77

**Q.** And the “Fold change (miR-129/neg)” value ([3]; gene BCL2A1)?
**A.** 0.04

**Q.** And the “Fold change (miR-129/neg)” value ([3]; gene BIRC3)?
**A.** 0.28

**Q.** What about the “Fold change (miR-129/neg)” value ([3]; gene CASP2) of the same substance?
**A.** 7.68

**Q.** And the “Fold change (miR-129/neg)” value ([3]; gene CASP3)?
**A.** 1.27

**Q.** And the “Fold change (miR-129/neg)” value ([3]; gene CASP7)?
**A.** 4.75

**Q.** And the “Fold change (miR-129/neg)” value ([3]; gene CASP9)?
**A.** 2.53

**Q.** And the “Fold change (miR-129/neg)” value ([3]; gene MCL1)?
**A.** 3.81

**Q.** What about the “Fold change (miR-129/neg)” value ([3]; gene PARP2) of the same substance?
**A.** 0.47

**Q.** What about the “miR-129 copy number in injected tumors” value [4] of the same substance?
**A.** less than 20 copies/cell
